Laboratory results from patent publication US8569383B2, “Utilization of rhinologically active substances” (Symrise AG, priority 2000, dated 2013).

Test: Sensory test of toothpaste with eucalyptus menthol type flavoring by trained expert panel
Assay type: in vivo
Settings: compared with 1-menthyl methyl ether
Protocol: Production of a Toothpaste Flavoring of the Eucalyptus Menthol Type, Using Menthyl Methyl Ether
The following were mixed:
In a second mixture batch, the 1,8-cineole (eucalyptol) content was replaced by 1-menthyl methyl ether. Both flavorings are incorporated at a concentration of 1.3% by weight into a standard toothpaste mix based on silicic acid. Both types of toothpaste were tested under conditions of practice by an expert panel trained in sensory testing.
In the case of COC(C)C1CCCC(C)(C)C1 (stereo not drawn) [1-(3,3-Dimethylcyclohexyl)ethyl methyl ether], the “sensory effects when used instead of 1-menthyl methyl ether” value (from here on “sensory effects when used instead”) is reported as “Comparable effects”.
For COC1CC(C)CC(C)(C)C1 (stereo not drawn) [3,3,5-trimethylcyclohexyl methyl ether], the “sensory effects when used instead” value was “Comparable effects”.
In the case of C=C(C)C1CCC(C)CC1OC (stereo not drawn) [isopulegyl methyl ether, Isopulegyl methyl ether], the “sensory effects when used instead” value is reported as “Comparable effects”.
